Reference: US20180369210A1, “METHODS AND COMPOSITIONS FOR TREATING LYSOSOMAL STORAGE DISORDERS” (Lysosomal Therapeutics Inc., priority 2015, published 2018)

Target: T1, acid ceramidase (Homo sapiens, UniProt Q13510)
T1 sequence (Q13510 22-395): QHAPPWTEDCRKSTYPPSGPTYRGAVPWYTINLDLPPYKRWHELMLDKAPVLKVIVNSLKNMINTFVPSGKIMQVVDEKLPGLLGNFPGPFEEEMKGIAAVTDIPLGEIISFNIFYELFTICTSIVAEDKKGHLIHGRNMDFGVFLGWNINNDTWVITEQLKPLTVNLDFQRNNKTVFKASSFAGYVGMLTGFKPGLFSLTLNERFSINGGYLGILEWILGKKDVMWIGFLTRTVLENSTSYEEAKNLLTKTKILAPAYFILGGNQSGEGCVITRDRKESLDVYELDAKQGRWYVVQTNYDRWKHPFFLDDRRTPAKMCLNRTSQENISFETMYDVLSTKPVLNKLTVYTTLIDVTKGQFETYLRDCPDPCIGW
Test: Acid ceramidase fluorescent intensity assay with fluorogenic substrate Rbm 14-12
Format: biochemical
Conditions: cell lysates enriched with acid ceramidase; 1 hour preincubation; substrate Rbm 14-12 6.3 μM; pH 4.5; room temperature, 1 or two hours; read-out: average IC50 value for the 1 and 2 hour time points, inhibition of acid ceramidase activity
Experimental: Inhibition of acid ceramidase activity by compound 25 of Table 2 was evaluated in a fluorescent intensity assay using a fluorogenic substrate Rbm 14-12 […]. Compound 25 was incubated with cell lysates enriched with acid ceramidase for 1 hour in an assay buffer containing 50 mM NaOAc and 100 mM NaCl at pH 4.5. The reaction was initiated by the addition of the substrate at a final concentration of 6.3 μM and the mixture was incubated at room temperature for 1 or two hours. At the appropriate time, the reaction was quenched by the addition of methanol and treated with NaIO4 (fresh 2.5 mg/ml solution was made in 100 mM glycine/NaOH buffer, pH 10.6), followed by incubation for 1 hour at room temperature. Fluorescent intensity was measured using a plate reader at ex 355 nm and em 460 nm.

IC50: 250 to 500 nM
SMILES: O=C(NCCCCc1ccccc1)n1c(=O)oc2cc(-c3ccc(F)cc3)ccc21 [Compound 25, 6-(4-fluorophenyl)-2-oxo-N-(4-phenylbutyl)-1,3-benzoxazole-3-carboxamide]
